Assay results as given in US12161722B2, “Bifunctional heterocyclic compound having BTK degradation function via ubiquitin proteasome pathway, and use thereof” (KOREA RESEARCH INSTITUTE OF CHEMICAL TECHNOLOGY, priority 2021, dated 2024).

target: T1, WT BTK protein (Homo sapiens, UniProt Q06187); test: BTK protein degradation assay (Western blotting), WT BTK; format: cell-based; conditions: concentration range accounting for 50% degradation of WT BTK protein, TMD-8 or RAMOS cells, 24 hours
T1 construct: measured for intracellular BTK protein levels by Western blotting; endogenous in cells; host or cells: TMD-8 or RAMOS cells
Procedure, shortened: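 TMD-8 cells (1×10^6 cells/mL) treated 24 h with compound serial dilutions, then lysed in RIPA. Equal protein loads analysed by Western blot for BTK with GAPDH/β-actin as loading controls; activity binned by concentration giving 50% WT BTK degradation.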

T1 sequence (Q06187 whole entry): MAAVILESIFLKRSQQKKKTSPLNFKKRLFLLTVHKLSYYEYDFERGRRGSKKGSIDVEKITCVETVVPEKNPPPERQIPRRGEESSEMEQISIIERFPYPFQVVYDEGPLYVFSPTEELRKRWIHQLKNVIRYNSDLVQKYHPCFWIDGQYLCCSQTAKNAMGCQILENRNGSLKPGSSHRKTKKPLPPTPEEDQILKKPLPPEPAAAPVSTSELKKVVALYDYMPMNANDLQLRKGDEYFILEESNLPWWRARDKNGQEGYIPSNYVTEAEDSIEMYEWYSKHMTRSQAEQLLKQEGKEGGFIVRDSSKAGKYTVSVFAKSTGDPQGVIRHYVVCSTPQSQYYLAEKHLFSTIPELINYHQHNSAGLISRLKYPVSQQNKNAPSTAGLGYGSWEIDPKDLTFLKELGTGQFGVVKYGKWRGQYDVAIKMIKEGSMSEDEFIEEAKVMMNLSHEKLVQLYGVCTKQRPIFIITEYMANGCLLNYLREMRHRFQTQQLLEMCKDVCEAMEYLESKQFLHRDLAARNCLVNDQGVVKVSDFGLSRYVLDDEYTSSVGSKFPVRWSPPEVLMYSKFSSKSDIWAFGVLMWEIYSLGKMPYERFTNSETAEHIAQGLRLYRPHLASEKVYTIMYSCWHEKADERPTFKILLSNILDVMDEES

Row | Structure (SMILES) | DC50
1 | Cc1cccc(C)c1Nc1nn(C)c2nc(Nc3ccc4c(c3)CN(C(=S)C3CCN(C(=O)CNc5ccc6c(c5)C(=O)N(C5CCC(=O)NC5=O)C6=O)CC3)CC4)ncc12 (stereo not drawn) [Compound 235, 5-((2-(4-(7-((3-((2,6-dimethylphenyl)amino)-1-methyl-1H-pyrazolo[3,4-d]pyrimidin-6-yl)amino)-1,2,3,4-tetrahydroisoquinoline-2-carbonothioyl)piperidin-1-yl)-2-oxoethyl)amino)-2-(2,6-dioxopiperidin-3-yl)isoindoline-1,3-dione] | 0.1 to 10 nM
2 | Cc1cccc(C)c1Nc1nn(C)c2nc(Nc3ccc(C4CCN(CC5CCN(c6ccc7c(n6)CN(C6CCC(=O)NC6=O)C7=O)CC5)CC4)cc3)ncc12 (stereo not drawn) [Compound 170, 3-(2-(4-((4-(4-((3-((2,6-Dimethylphenyl)amino)-1-methyl-1H-pyrazolo[3,4-d]pyrimidin-6-yl)amino)phenyl)piperidin-1-yl)methyl)piperidin-1-yl)-5-oxo-5,7-dihydro-6H-pyrrolo[3,4-b]pyridin-6-yl)piperidin-2,6-one] | 0.1 to 10 nM
3 | Cc1cccc(C)c1Nc1nn(C)c2nc(Nc3ccc4c(c3)CN(C(=O)CN3CCN(c5ccc6c(c5)CN(C5CCC(=O)NC5=O)C6=O)CC3)CC4)ncc12 (stereo not drawn) [Compound 104, 3-(5-(4-(2-(7-((3-((2,6-Dimethylphenyl)amino)-1-methyl-1H-pyrazolo[3,4-d]pyrimidin-6-yl)amino)-3,4-dihydroisoquinolin-2 (1H)-yl)-2-oxoethyl)piperazin-1-yl)-1-oxoisoindolin-2-yl)piperidin-2,6-one] | 0.1 to 10 nM
4 | Cc1cccc(C)c1Nc1nn(C)c2nc(Nc3ccc4c(c3)CN(C(=O)C3(NCC5CCN(c6ccc7c(c6)C(=O)N(C6CCC(=O)NC6=O)C7=O)CC5)CC3)CC4)ncc12 (stereo not drawn) [Compound 199, 5-(4-(((1-(7-((3-((2,6-Dimethylphenyl)amino)-1-methyl-1H-pyrazolo[3,4-d]pyrimidin-6-yl)amino)-1,2,3,4-tetrahydroisoquinoline-2-carbonyl)cyclopropyl)amino)methyl)piperidin-1-yl)-2-(2,6-dioxopiperidin-3-yl)isoindoline-1,3-dione] | 10 to 1000 nM
5 | Cc1cccc(C)c1Nc1nn(C)c2nc(Nc3ccc(C4=CCN(CC5CCN(c6ccc7c(c6)C(=O)N(C6CCC(=O)NC6=O)C7=O)CC5)CC4)cc3)ncc12 (stereo not drawn) [Compound 230, 5-(4-((4-(4-((3-((2,6-Dimethylphenyl)amino)-1-methyl-1H-pyrazolo[3,4-d]pyrimidin-6-yl)amino)phenyl)-3,6-dihydropyridin-1 (2H)-yl)methyl)piperidin-1-yl)-2-(2,6-dioxopiperidin-3-yl)isoindoline-1,3-dione] | 0.1 to 10 nM
6 | Cc1cccc(C)c1Nc1nn(C)c2nc(Nc3ccc4c(c3)CN(C(=O)C3CCN(c5ccc6c(c5)C(=O)N(C5CCC(=O)NC5=O)C6=O)C3)CC4)ncc12 (stereo not drawn) [Compound 66] | 10 to 1000 nM
7 | Cc1cccc(C)c1Nc1nn(C)c2nc(Nc3ccc(N4CCN(CC5CN(c6ccc7c(c6)C(=O)N(C6CCC(=O)NC6=O)C7=O)C5)CC4)cc3)ncc12 (stereo not drawn) [Compound 181, 5-(3-((4-(4-((3-((2,6-Dimethylphenyl)amino)-1-methyl-1H-pyrazolo[3,4-d]pyrimidin-6-yl)amino)phenyl)piperazin-1-yl)methyl)azetidin-1-yl)-2-(2,6-dioxopiperidin-3-yl)isoindoline-1,3-dione] | 0.1 to 10 nM
8 | Cc1cccc(C)c1Nc1nn(C)c2nc(Nc3ccc(N4CCN(CC5CCN(c6ccc7c(c6)C(=O)N(C6CCC(=O)NC6=O)C7=O)CC5)CC4)nc3)ncc12 (stereo not drawn) [Compound 134, 5-(4-((4-(5-((3-((2,6-Dimethylphenyl)amino)-1-methyl-1H-pyrazolo[3,4-d]pyrimidin-6-yl)amino)pyridin-2-yl)piperazin-1-yl)methyl)piperidin-1-yl)-2-(2,6-dioxopiperidin-3-yl)isoindoline-1,3-dione] | 0.1 to 10 nM
9 | Cc1cccc(C)c1Nc1nn(C)c2nc(Nc3ccc4c(c3)CN(C(=O)CCC3CCN(c5ccc6c(c5)C(=O)N(C5CCC(=O)NC5=O)C6=O)CC3)CC4)ncc12 (stereo not drawn) [Compound 126, 5-(4-(3-(7-((3-((2,6-Dimethylphenyl)amino)-1-methyl-1H-pyrazolo[3,4-d]pyrimidin-6-yl)amino)-3,4-dihydroisoquinolin-2 (1H)-yl)-3-oxopropyl)piperidin-1-yl)-2-(2,6-dioxopiperidin-3-yl)isoindoline-1,3-dione] | 0.1 to 10 nM
10 | Cc1cccc(C)c1Nc1nn(C)c2nc(Nc3ccc(C4CCN(C5CCN(c6ccc7c(c6)C(=O)N(C6CCC(=O)NC6=O)C7=O)CC5)CC4)cc3)ncc12 (stereo not drawn) [Compound 168, 5-(4-(4-((3-((2,6-Dimethylphenyl)amino)-1-methyl-1H-pyrazolo[3,4-d]pyrimidin-6-yl)amino)phenyl)-[1,4′-bipyridin]-1′-yl)-2-(2,6-dioxopiperidin-3-yl)isoindoline-1,3-dione] | 0.1 to 10 nM
11 | Cc1cccc(C)c1Nc1nn(C)c2nc(Nc3ccc4c(c3)CN(C(=O)COc3ccc5c(c3)CN(C3CCC(=O)NC3=O)C5=O)CC4)ncc12 (stereo not drawn) [Compound 105, 3-(5-(2-(7-((3-((2,6-Dimethylphenyl)amino)-1-methyl-1H-pyrazolo[3,4-d]pyrimidin-6-yl)amino)-3,4-dihydroisoquinolin-2 (1H)-yl)-2-oxoethoxy)-1-oxoisoindolin-2-yl)piperidin-2,6-one] | 0.1 to 10 nM
12 | Cc1cccc(C)c1Nc1nn(C)c2nc(Nc3ccc4c(c3)CN(C3CCN(C[C@H]5CCCN(c6ccc7c(c6)C(=O)N(C6CCC(=O)NC6=O)C7=O)C5)CC3)CC4)ncc12 (stereo partly drawn) [Compound 140, 5-((R)-3-((4-(7-((3-((2,6-dimethylphenyl)amino)-1-methyl-1H-pyrazolo[3,4-d]pyrimidin-6-yl)amino)-3,4-dihydroisoquinolin-2 (1H)-yl)piperidin-1-yl)methyl)piperidin-1-yl)-2-(2,6-dioxopiperidin-3-yl)isoindoline-1,3-dione] | 0.1 to 10 nM
13 | Cn1nc(Nc2c(Br)cccc2Br)c2cnc(Nc3ccc4c(c3)CN(CC3CCN(c5ccc6c(c5)C(=O)N(C5CCC(=O)NC5=O)C6=O)CC3)CC4)nc21 (stereo not drawn) [Compound 217, 5-(4-((7-((3-((2,6-Dibromophenyl)amino)-1-methyl-1H-pyrazolo[3,4-d]pyrimidin-6-yl)amino)-3,4-dihydroisoquinolin-2 (1H)-yl)methyl)piperidin-1-yl)-2-(2,6-dioxopiperidin-3-yl)isoindoline-1,3-dione] | 0.1 to 10 nM
14 | Cc1cccc(C)c1Nc1nn(C)c2nc(Nc3ccc4c(c3)CN(CC3CN(c5ccc6c(c5)C(=O)N(C5CCC(=O)NC5=O)C6=O)C3)CC4)ncc12 (stereo not drawn) [Compound 47, 5-(3-((7-((3-((2,6-Dimethylphenyl)amino)-1-methyl-1H-pyrazolo[3,4-d]pyrimidin-6-yl)amino)-3,4-dihydroisoquinolin-2 (1H)-yl)methyl)azetidin-1-yl)-2-(2,6-dioxopiperidin-3-yl)isoindoline-1,3-dione] | 0.1 to 10 nM
15 | Cc1cccc(C)c1Nc1nn(C)c2nc(Nc3ccc4c(c3)CN(CC3CCN(C(=O)C5CCN(c6cc7c(cc6F)C(=O)N(C6CCC(=O)NC6=O)C7=O)CC5)CC3)CC4)ncc12 (stereo not drawn) [Compound 210, 5-(4-(4-((7-((3-((2,6-Dimethylphenyl)amino)-1-methyl-1H-pyrazolo[3,4-d]pyrimidin-6-yl)amino)-3,4-dihydroisoquinolin-2 (1H)-yl)methyl)piperidine-1-carbonyl)piperidin-1-yl)-2-(2,6-dioxopiperidin-3-yl)-6-fluoroisoindoline-1,3-dione] | 0.1 to 10 nM
